Measurements as given in the NIST ThermoML archive (doi:10.1021/acs.jced.9b00001).
Several values for one entry are separate records, joined by “and”; a condition that tells them apart may be missing. Equal values may be shown once.

Conditions: Liquid, Closed cell (Static) method

FC(F)(F)/C=C/Cl [(E)-1-chloro-3,3,3-trifluoroprop-1-ene]
Conditions | vapor or sublimation pressure
253.17 K | 17.85 kPa
257.16 K | 22.05 kPa
260.17 K | 25.84 kPa
263.21 K | 30.13 kPa
267.04 K | 36.26 kPa and 36.26 kPa
270.14 K | 41.85 kPa
273.14 K | 47.91 kPa
277.11 K | 57.02 kPa
280.14 K | 64.83 kPa
283.09 K | 73.21 kPa
287.12 K | 86.04 kPa
290.14 K | 96.6 kPa
290.16 K | 96.73 kPa
293.09 K | 108.04 kPa
293.17 K | 108.4 kPa
297.15 K | 125.37 kPa
297.16 K | 125.42 kPa
300.15 K | 139.48 kPa
303.16 K | 154.83 kPa
307.16 K | 177.3 kPa
310.15 K | 195.73 kPa
313.15 K | 215.48 kPa
317.16 K | 244.36 kPa
320.16 K | 267.95 kPa
323.15 K | 293.08 kPa
323.25 K | 293.99 kPa
323.36 K | 295.01 kPa
327.16 K | 329.62 kPa
330.15 K | 359.02 kPa
333.14 K | 390.34 kPa and 390.35 kPa
333.15 K | 390.53 kPa
337.15 K | 435.75 kPa
340.15 K | 472.19 kPa
343.13 K | 510.48 kPa
343.15 K | 510.8 kPa and 510.94 kPa
343.19 K | 511.2 kPa
347.15 K | 566.08 kPa
350.16 K | 610.55 kPa
353.18 K | 657.68 kPa and 657.72 kPa
353.19 K | 657.8 kPa and 657.95 kPa
357.16 K | 724.03 kPa
360.16 K | 777.18 kPa
363.17 K | 833.48 kPa
363.2 K | 834.12 kPa
363.23 K | 834.57 kPa and 835.18 kPa
367.17 K | 913.02 kPa
370.17 K | 976.1 kPa
373.17 K | 1042.6 kPa and 1043.1 kPa
373.19 K | 1043.2 kPa and 1043.3 kPa
377.15 K | 1136.1 kPa
380.15 K | 1210.4 kPa
383.2 K | 1289.7 kPa
383.21 K | 1289.9 kPa
383.22 K | 1290.5 kPa and 1290.6 kPa
387.16 K | 1398.3 kPa
390.15 K | 1484.8 kPa
393.17 K | 1576.2 kPa
393.2 K | 1577.7 kPa
393.21 K | 1577.4 kPa and 1578 kPa
397.18 K | 1704 kPa
397.22 K | 1705.7 kPa
400.23 K | 1806.9 kPa
400.24 K | 1806.7 kPa
403.14 K | 1908.4 kPa
403.15 K | 1909 kPa
403.22 K | 1911.4 kPa and 1911.9 kPa
403.26 K | 1912.9 kPa
407.13 K | 2055.5 kPa
408.25 K | 2098.3 kPa
410.17 K | 2173.3 kPa
413.1 K | 2291.7 kPa
413.18 K | 2294.5 kPa
413.19 K | 2294.6 kPa and 2295.1 kPa and 2294.9 kPa
417.18 K | 2463.9 kPa
418.23 K | 2510.4 kPa
420.13 K | 2595.8 kPa
423.15 K | 2735.4 kPa and 2736 kPa
423.18 K | 2737.1 kPa
423.19 K | 2737.5 kPa
427.19 K | 2932.7 kPa
430.25 K | 3090.6 kPa
